# Results as given in BindingDB's records for doi:10.1016/j.bmcl.2006.12.014 (The Genomics Institute of The Novartis Research Foundation, 2007).
# Biological target: Cathepsin Z (Homo sapiens) (UniProt Q9UBR2)
# Experiment: Inhibition of human recombinant cathepsin X
# Sequence of Cathepsin Z (Homo sapiens) (Q9UBR2 whole entry, looked up): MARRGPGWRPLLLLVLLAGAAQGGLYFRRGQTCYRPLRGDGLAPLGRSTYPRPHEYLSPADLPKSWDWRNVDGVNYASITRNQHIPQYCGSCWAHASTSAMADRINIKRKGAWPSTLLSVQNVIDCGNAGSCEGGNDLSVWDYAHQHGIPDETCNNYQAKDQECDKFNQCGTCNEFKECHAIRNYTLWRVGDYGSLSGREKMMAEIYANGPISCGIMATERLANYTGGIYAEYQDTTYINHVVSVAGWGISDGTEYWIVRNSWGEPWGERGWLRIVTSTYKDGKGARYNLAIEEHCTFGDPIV
row,IC50,Structure (SMILES)
1,547 nM,"O=C1O[C@@H]2CN1CC[C@@H]2OCc1ccccc1 [(1R,2S)-2-(benzyloxy)-7-oxa-5-aza-bicyclo[3.2.1]octan-6-one]"
2,326 nM,"O=C1O[C@@H]2CN1CC[C@@H]2Oc1ccccc1 [(1R,2S)-2-phenoxy-7-oxa-5-aza-bicyclo[3.2.1]octan-6-one]"
3,7150 nM,"S=C1O[C@@H]2CN1CC[C@@H]2Oc1ccccc1 [(1R,2S)-2-phenoxy-7-oxa-5-aza-bicyclo[3.2.1]octane-6-thione]"

row,Structure (SMILES),IC50
1,"CC(C)CO[C@H]1CCN2C[C@H]1OC2=O [(1R,2S)-2-isobutoxy-7-oxa-5-aza-bicyclo[3.2.1]octan-6-one]",1100 nM

# Biological target: Cathepsin Z (Homo sapiens) (UniProt Q9UBR2)
# Experiment: Inhibition of human recombinant cathepsin X
# Remark: another data set of the same source
row,IC50,Structure (SMILES)
1,553 nM,"Cc1cccc(O[C@H]2CCN3C[C@@H]2OC3=O)c1C (racemic) [rac-trans4-(2,3-dimethylphenoxy)-6-oxa-1-aza-bicyclo[3.2.1]octan-7-one]"
2,197 nM,"Cc1cccc(O[C@H]2CCN3C[C@H]2OC3=O)c1C (relative stereo) [cis-4-(2,3-dimethylphenoxy)-6-oxa-1-aza-bicyclo[3.2.1]octan-7-one]"
3,> 10000 nM,"O=C1O[C@H]2CN1CC[C@@H]2Br [(1S,2S)-2-bromo-7-oxa-5-aza-bicyclo[3.2.1]octan-6-one]"
